# Results from patent publication US20250221408A1, “COMPOSITION” (EARTH CORPORATION, priority 2022, published 2025).
# Read-outs that look alike come from different tables or passages of the source.
# Experiments:
# [1] = Decomposition stability of single perfume component in sodium chlorite/benzalkonium chloride preparation, GC-MS, Example 5; conditions: for Area change rate (%) / Decomposition stability of additive component: 50° C. for 2 weeks
# Procedure: Next, the prepared preparation was stored at 50° C. for 2 weeks to obtain an aged product. Further, GC-MS of the initial product (preparation before 2 weeks of storage) and the aged product (preparation after 2 weeks of storage) were measured as described below to observe the change in the content of the perfume component (additive component of the present invention).
# Each of the preparations was then measured and analyzed by GC-MS according to the method described above.
# Further, the peak area measured by GC-MS of each perfume component in the initial product of the preparation of Example 5 was defined as the “initial product area value”, and the peak area measured by GC-MS of each perfume component in the aged product was defined as the “aged product area value”.
# [2] = Lewis acidity measurement method (1): reaction rate constant of CoTPP and oxygen in the presence of Lewis acid; type: physicochemical
# [3] = Decomposition stability of perfume components in sodium chlorite/benzalkonium chloride preparation, GC-MS, Examples 1 to 4 (perfume mixtures)
# Procedure: Next, the prepared preparation was stored at 500° C. for 2 weeks to obtain an aged product. Further, GC-MS of the initial product (preparation before 2 weeks of storage) and the aged product (preparation after 2 weeks of storage) was measured as described below to observe the change in the content of the perfume components (additive component of the present invention).
# An ODS cartridge column (Waters Corporation, trade name SepPAK) was conditioned with the first pass through of 10 mL of methanol and the second pass through of 10 mL of water. 100 mL of a sample solution (preparation prepared in the present example, i.e. the composition of the present invention) was passed through the conditioned column and adsorbed on the column. 3 mL of ethanol was further passed through to elute the composition adsorbed on the column. The elusion was analyzed by GC-MS and the area of the perfume component contained therein was measured. This measurement was performed for each of the initial product (preparation before 2 weeks of storage) and the aged product (preparation after 2 weeks of storage), and the area of the perfume component contained in each was compared.
# • Column: InertCap Pure-WAX (trade name of the product manufactured by GL Sciences Inc.), 30 m, inner diameter 0.25 mm, film thickness 0.25 μm • Flow rate: Approximately 40 cm/sec • Column temperature: The temperature is raised at 5° C. per minute from 50° C. to 250° C. • Injection port temperature: 200° C. • Detector temperature: 250° C. • Injection amount: 1 μL • Split ratio: 1:10
# Each preparation was then measured and analyzed by GC-MS according to the method described above.
# “Area change rate (%)” was calculated from the calculated area values, based on the following Equation [1].
# Area change rate (%)=initial product area value/aged product area value×100 [1]
# Further, the decomposition stability of the additive components was evaluated in three stages, ∘, Δ and × as described below, according to the area change rate (%).
# [4] = perfume component 1 ppm in preparation
# [5] = perfume component 2 ppm in preparation
# [6] = CoTPP and oxygen under the presence of Lewis acid, MeCN, room temperature
# [7] = perfume component 6 ppm in preparation
# [8] = Examples 1 to 4, aged products after 2 weeks of storage, GC-MS
# [9] = perfume component 5 ppm in preparation
# [10] = perfume component 10 ppm in preparation
# [11] = perfume component 50 ppm in preparation
# [12] = perfume component 3 ppm in preparation
compound,measurement,setting,value
CC12CCC(CC1)C(C)(C)O2 [Eucalyptol],Area change rate (%),[1]; [4],99%
same,Decomposition stability of additive component,[1]; [4],∘ (70% or more)
CC1CCC(C(C)(C)O)CC1 (centres unmarked) [Dihydroterpineol],Area change rate (%),[1]; [5],99%
benzalkonium chloride,kcat,[2]; [6],0.18 M^−2 s^−1
CC1=CC(=O)C(C(C)C)CC1 (centres unmarked) [Piperitone],Area change rate (%),[1]; [7],89%
same,Decomposition stability of additive component,[1]; [7],∘ (70% or more)
"Cc1coc2c1CCC(C)C2 (centres unmarked) [Menthofuran, reference compound]",Fate of perfume component in aged product (in words),[3]; [8],no peaks were observed
CCCC[N+](CCCC)(CCCC)CCCC.F[P-](F)(F)(F)(F)F [tetrabutylammonium hexafluorophosphate],kcat,[2],>0.1 M^−2 s^−1
"CC(C)(C)CC(C)(C)c1ccc(OCCOCC[N+](C)(C)Cc2ccccc2)cc1.[Cl-] [benzetonium chloride, benzethonium chloride]",kcat,[2]; [6],0.24 M^−2 s^−1
C=C(C)C1CC=C(C)C(=O)C1 (centres unmarked) [Carvone],Area change rate (%),[1]; [9],98%
same,Decomposition stability of additive component,[1]; [9],∘ (70% or more)
"C=CC(C)(O)CCC=C(C)C (centres unmarked) [Linalool, reference compound]",Fate of perfume component in aged product (in words),"[1]; Example 5, aged product after 2 weeks at 50° C., GC-MS",remarkably decreased
same,Area change rate (%),[1]; [9],0%
same,Fate of perfume component in aged product (in words),[3]; [8],no peaks were observed
"CC(C)C12CCC(C)(CC1)O2 [1,4-cineole]",Area change rate (%),[1]; [5],95%
Cc1ccc(C(C)C)c(O)c1 [Thymol],Area change rate (%),[1]; [9],76%
same,Decomposition stability of additive component,[1]; [9],∘ (70% or more)
"CC(C)C12CCC(C)(O)C1C2 (centres unmarked) [Thujanol, reference compound]",Fate of perfume component in aged product (in words),[3],no peaks were observed
C=CCc1ccc(O)c(OC)c1 [Eugenol],Area change rate (%),[1]; [9],97%
CC(C)=C1CC[C@@H](C)CC1=O [Pulegone],Area change rate (%),[1]; [9],100%
same,Decomposition stability of additive component,[1]; [9],∘ (70% or more)
CC1CCC(C(C)C)C(O)C1 (centres unmarked) [Menthol],Area change rate (%),[1]; [9],100%
same,Decomposition stability of additive component,[1]; [9],∘ (70% or more)
same,Area change rate (%),[1]; [10],100%
same,Decomposition stability of additive component,[1]; [10],∘ (70% or more)
same,Area change rate (%),[1]; [11],100%
same,Decomposition stability of additive component,[1]; [11],∘ (70% or more)
C=C(C)[C@@H]1CC[C@@H](C)C(=O)C1 [Dihydrocarvone],Area change rate (%),[1]; perfume component 4 ppm in preparation,91%
"Cc1ccccc1C(C)C [o-cymene, reference compound]",Fate of perfume component in aged product (in words),[3]; [8],no peaks were observed
CC(C)[C@@H]1CC[C@@H](C)CC1=O [Menthone],Area change rate (%),[1]; [9],75%
same,Decomposition stability of additive component,[1]; [9],∘ (70% or more)
same,Area change rate (%),[1]; [10],80%
same,Decomposition stability of additive component,[1]; [10],∘ (70% or more)
OCc1ccccc1 [Benzyl alcohol],Area change rate (%),[1]; [12],84%
same,Decomposition stability of additive component,[1]; [12],∘ (70% or more)
